The text below walks through data of US20250204532A1, “Treatment Liquid for Cleaning an Implant Part” (Zyfoma GmbH, priority 2013, published 2025).

This experiment relates to biofilm. The experiment can be described thus: electrolytic cleaning of biofilm-contaminated implant surface (laboratory test). To be noted: implants greatly covered and contaminated with a biofilm, on which tartar has also developed; relatively low dosages.

Text: For detaching the bacteria or germs, respectively their residues or fragments, from the surface, it is provided to wet the latter with a conductive treatment liquid, charging it with current, possibly in the form of pulsed current impulses. […] Here, e.g. oil and/or chlorhexidine can be used. Furthermore, ionic liquids, which preferably contain I^−, Cl^− and/or OH^− ions, can also be used.

On to `CC(=O)O` [ethanoic acid], for which the cleaning success result is reported as “good cleaning success”.
